For 74 compounds, EC50, IC50 and outcome results are on record in PubChem BioAssay AID179 (DTP/NCI, 2004).

“And” between values parts separate entries of the source, which are not always exact repeats. Equal entries are not always repeated. The source made the active and inactive calls.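 Rule for the calls: active = compounds giving half or more protection of infected cells from virus-caused growth loss, again on retest; inactive = the rest.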 Where a SMILES comes first, the peptide text is derived from it. [ ]: non-standard residue; d: D form. The star is where a group is joined. ξ: configuration not given here. ξF = NC(Cc1ccccc1)C(=O)O; Cbz = O=C(OCc1ccccc1)*; Aib = CC(C)(N)C(=O)O; NHNH2 = NN* A value given as a limit tells only on which side of the number the result lay.

This experiment has as its system CEM cells HIV-1 protection, formazan growth assay. Kind of experiment: NCI AIDS Antiviral Assay. The following applies: for IC50: measured here: growth of uninfected CEM cells. In short, it runs like this: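 Human CEM cells, uninfected and HIV-1-infected, exposed to five drug concentrations; growth measured by soluble formazan assay and scored as percent protection from infection, with protecting compounds retested.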

Consider `NC(=O)C(=CNC(=S)Nc1ccc(Cl)c(Cl)c1)C(N)=O`, for which the EC50 (as a rule, the concentration at which the effect is half-maximal) was over 200 µM and the IC50 (as a rule, the concentration that gives 50% inhibition) came out at 30.2 µM.

On to `O=C1c2cccc3cc([N+](=O)[O-])cc(c23)C(=O)N1C(Cc1ccccc1)c1ccccc1` (configuration not stated), for which the EC50 was over 200 µM and the IC50 is 105 µM. The like results for `Cc1cc(N=Nc2c(O)c3ccccc3[nH]c2=O)ccc1N=Nc1ccc(C(=O)N(C)C)cc1` were, in that order, over 200 µM and 151 µM. Taken in the same sequence, the figures for `CCOC(=O)c1cccc([N+](=O)[O-])c1N` were over 200 µM and over 200 µM. The like results for `C=C1CN(S(=O)(=O)c2ccc(C)cc2)CCCN(CCC)CCCN(S(=O)(=O)c2ccc(C)cc2)C1` were, in that order, over 200 µM and 2.95 µM. `CN(C)c1ccc2nc3c(C(=O)O)cc(=O)c(O)c-3oc2c1`: the EC50 is over 100 µM and the IC50 amounted to 13.8 µM. Regarding `CCCN(CCc1ccc(-c2ccccc2)cc1)CCc1ccc2n[nH]nc2c1`, the EC50 is over 200 µM and the IC50 amounted to 10 µM.

With `CCCCCCCCCCCC[N+]12CC[N+](C)(CC1)CC2`, the EC50 was over 251 µM and the IC50 was found to be 14.8 µM. The like results for `O=S(=O)(Nc1nnc2c3ccccc3cnn12)c1ccc(F)cc1S` were, in that order, 110 µM and 468 µM. The like results for `CCOC(=O)/C(=C/c1ccc([N+](=O)[O-])cc1)C(=O)c1ccccc1` were, in that order, over 22.4 µM and 13.5 µM.

For `C=C1C(=O)O[C@H]2C3OC3(C)CC/C=C(/C(=O)OC)[C@@H](OC(C)=O)[C@H](OC(=O)C3(C)OC3C)[C@H]12` (some centres not stated), the result was inactive.

For `OCC(O)C(O)C(O)c1nc2ccccc2s1` (configuration not stated), the EC50 is over 977 µM and the IC50 was 120 µM. `CSc1n[n+]2c(s1)SCCC2`: the EC50 was over 759 µM and the IC50 worked out at 58.9 µM. The like results for `CN(C)c1ccc(C(=CC=C2c3ccccc3C(=O)c3ccccc32)c2ccc(N(C)C)cc2)cc1` were, in that order, over 3.09 µM and over 3.09 µM.

As to `COc1cccc2c1C(=O)c1c(O)c3c(c(O)c1C2=O)C[C@@](O)(C(C)=O)C[C@@H]3OC1CC(N(C)C)C(O)C(C)O1` (some centres not stated), the outcome was inactive. Take `C=CCc1c(C(O)CNC(C)C)ccc(OC)c1OCc1ccccc1` (configuration not stated): the EC50 is over 200 µM and the IC50 worked out at 30.2 µM. For the compound `Cc1ccc(S(=O)(=O)OC2C3CCC4C(COC42)C3)cc1` (configuration not stated), the EC50 is 79.4 µM and 77.6 µM; the IC50 is over 200 µM.

Consider `Cc1csc2[n+]1C(=O)/C(=C\c1ccc([N+](=O)[O-])cc1)S2`, for which the EC50 is over 200 µM and the IC50 turned out to be 29.5 µM. With `CC(=O)c1cc([N+](=O)[O-])ccc1OCC(=O)O`, the result was inactive. Turning to `CN(C)CCN(C(=Nc1ccccc1)N1CCCC1)c1ccccc1`, the EC50 is over 200 µM and the IC50 amounted to 8.32 µM. Taken in the same sequence, the figures for `CC(C)(C)OC(=O)NC1CCCCC1NC(=O)C(=O)NC1CCCCC1NC(=O)OC(C)(C)C` (configuration not stated) were over 100 µM and over 100 µM.

Take `O=c1oc(-c2cccc(-c3nc4c(c(=O)o3)CCS4)c2)nc2c1CCS2`: the EC50 was over 200 µM.

For `Cc1ncc([N+](=O)[O-])n1CCOC(N)=O`, the EC50 is over 200 µM and the IC50 was over 200 µM. In the case of `CCCCCC[P+](c1ccccc1)(c1ccccc1)c1ccccc1`, the EC50 was over 200 µM and the IC50 is 0.741 µM.

With `O=P(O)(O)Cc1c(Cl)c(Cl)c(CP(=O)(O)O)c(Cl)c1Cl`, the EC50 is over 200 µM and the IC50 was over 200 µM.

`COc1cc2c(Cc3cc(OCc4ccccc4)ccc3N)nccc2c(OC)c1OC`: the outcome was inactive.

Regarding `CC(C)(C)[Si](C)(C)OCC1OC(n2ccc(=O)[nH]c2=O)C(O[Si](C)(C)C(C)(C)C)/C1=N/O` (configuration not stated), the EC50 is over 200 µM and the IC50 was found to be 4.07 µM. With `C[n+]1cn(C2=C([O-])c3ccccc3C(=O)/C2=N\S(=O)(=O)c2ccccc2)c2ccccc21`, the EC50 is over 151 µM and the IC50 was 126 µM. The like results for `CSC(SC)=C(C(=O)c1ccc(Cl)cc1)n1c(=O)sc2cc(Br)ccc21` were, in that order, over 200 µM and 12.3 µM. With `COc1cc(C[C@H]2C(=O)OC[C@@H]2Cc2ccc(OC)c(OC)c2)cc(OC)c1`, the EC50 is over 200 µM and the IC50 turned out to be 91.2 µM. Taken in the same sequence, the figures for `Cc1cc(=O)[nH]c(NNC(C#N)c2ccc(O)cc2)n1` (configuration not stated) were over 182 µM and over 182 µM.

Take `CC1(c2ccc(F)cc2)C2C(=O)NC(=O)C1C(=O)NC2=O` (configuration not stated): the EC50 was over 871 µM and the IC50 was 575 µM. Take `CCOC(=O)[C@@]12C[C@](/C=C/OC)(O[Si](C)(C)C)[C@@]13c1cc(OC)c(OC)cc1CCN3C(=O)C2O` (some centres not stated): the EC50 was over 200 µM and the IC50 was over 200 µM.

`CC/C=C(\C)C(CCC)(CN=O)C(=O)OCC` (configuration not stated): the outcome was inactive. In the case of `C=Cc1ccc(CC)cn1`, the EC50 is over 200 µM and the IC50 was over 200 µM.

Regarding `NC12c3c4cccc3Oc3cccc(c31)Oc1cccc(c12)O4`, the EC50 is over 50.1 µM and the IC50 amounted to 28.8 µM.

Consider `CSc1nc(-c2ccccc2)nc(=[N+]2CCOCC2)s1`, for which the EC50 was over 417 µM and the IC50 is 234 µM.

Consider `CN1C2CCC1CC(C)(O)C2` (configuration not stated), for which the EC50 was over 200 µM and the IC50 was over 200 µM. `O=CC(O)C(O)C(O)C(O)CON1C[C@@H](O)C(O)[C@@H](O)C1` (some centres not stated): the EC50 was over 200 µM and the IC50 is over 200 µM. `NC1CCC(C(=O)C2CCC(O)CC2O)CC1` (configuration not stated): the EC50 was over 200 µM and the IC50 was 18.2 µM.

Turning to `O=S(=O)(c1ccccc1)C(Cl)c1cccc(Cl)c1` (configuration not stated), the EC50 is over 63.1 µM and the IC50 was over 63.1 µM. On to `O=C(O)CSc1ccc2c3c(cccc13)C(=O)c1ccccc1-2`, for which the EC50 is over 200 µM and the IC50 is 3.09 µM.

Take `Cc1ccc(/C(O)=C/c2nc3c(nc2NC24CC5CC(CC(C5)C2)C4)c(=O)oc2ccccc23)cc1`: the EC50 is over 2.19 µM and the IC50 is over 2.19 µM.

As for `CC(=O)C1Cn2c(nc3ccccc32)C[Se]1` (configuration not stated), the result was inactive. On to `CC(C)(NC(=O)OCc1ccccc1)C(=O)NC(Cc1ccccc1)C(=O)NN` (configuration not stated) (Cbz-[Aib]-[ξF]-NHNH2), for which the EC50 was over 200 µM and the IC50 was over 200 µM.

In the case of `COCn1c(C)c(C)c2c(=O)oc(C)nc21`, the EC50 was over 200 µM and the IC50 was over 200 µM. Turning to `CCO/C=C/C(C)C1(C(=O)OCC)CCCCC1=O` (configuration not stated), the EC50 was over 97.7 µM and the IC50 was over 97.7 µM. For `CCOC(=O)[C@H]1Nc2ccc(Cl)cc2[C@H]2c3ccccc3O[C@H]21`, the EC50 was over 30.2 µM and the IC50 is over 30.2 µM. Consider `O=c1nc2ccc3sc4ccccc4c(=O)c3n2c(=O)[nH]1`, for which the EC50 was over 200 µM and the IC50 was 110 µM. On to `CCn1c2ccccc2c2cc(N=C3C(=O)N(C)c4ccccc43)ccc21`, for which the EC50 is over 200 µM and the IC50 amounted to 10.7 µM. Taken in the same sequence, the figures for `O=[C]=[Fe+].O=[C]=[Fe].[C-]1=CCC=C1.[CH-]=O.[CH-]=O.c1cc[cH-]c1` were over 200 µM and 21.4 µM. Taken in the same sequence, the figures for `COC(=O)/C=C/C1CC(CCCOc2ccccc2)OC(c2ccccc2)O1` (configuration not stated) were over 66.1 µM and over 66.1 µM. The like results for `O=C1c2cc3c(cc2CC12Cc1cc4c(cc1C2)CCC4)CCC3` were, in that order, over 200 µM and over 200 µM. As to `C=CCOCn1cnc2c(N)ncnc21`, the result was inactive. On to `CC(C)c1ccc(/C=C/c2cc(C(=O)NNC(=O)NC3CCCCC3)nc(=S)[nH]2)cc1`, for which the EC50 is over 6.17 µM and the IC50 is over 6.17 µM. On to `COc1cc(NS(C)(=O)=O)ccc1Nc1c2ccccc2nc2c1[nH]c1ccc(NC3OC(CO)C(O)C(O)C3O)cc12` (configuration not stated), for which the EC50 is over 0.12 µM and the IC50 turned out to be 0.0468 µM. The like results for `CC(=O)Nc1ccccc1/C=C\c1ccccn1` were, in that order, over 1050 µM and over 1050 µM. In the case of `COC(=O)OC[C@H]1O[C@@H](n2cc(C)c(=O)[nH]c2=O)CC1OC(=O)OC` (some centres not stated), the EC50 was over 200 µM and the IC50 was over 200 µM. With `COc1ccc(/C=C2\Oc3cc(OC(C)=O)ccc3C2=O)cc1`, the EC50 was over 200 µM and the IC50 is 37.2 µM.

`O=C(c1ccccc1)c1c(-c2ccccc2)sc2nc3ccccc3nc12`: the EC50 is over 27.5 µM and the IC50 was over 27.5 µM. As to `O=C(O)c1nc2cc(Cl)ccc2[nH]c1=O`, the EC50 was over 200 µM and the IC50 is over 200 µM.

As to `O=C1N[C@@H]2c3c(Br)sc(Br)c3C(=O)[C@@H]2O1`, the EC50 is over 200 µM and the IC50 was found to be 0.759 µM. The like results for `Cc1ccc2nc(NC(=O)C(=O)C(C#N)c3ccc(Cl)cc3)sc2c1` (configuration not stated) were, in that order, over 49 µM and over 49 µM.

Turning to `[Cu+2].c1nnc(N2CNCCNCN(c3nnc[n-]3)CNCCNC2)[n-]1`, the EC50 is over 200 µM and the IC50 was over 200 µM. Consider `c1ccc(C2=NN2c2ccccc2)cc1`, for which the result was inactive. Regarding `CCCCCCc1cc(C(=O)Nc2cccc(C(F)(F)F)c2)nc(N)n1`, the result was inactive. Regarding `NC1=Nc2ccccc2Sc2nc3ccccc3n21`, the EC50 is over 200 µM and the IC50 turned out to be 8.71 µM. The like results for `C=CCCC12CCCC(=O)C1Sc1ccccc12` (configuration not stated) were, in that order, over 138 µM and 91.2 µM. On to `O=C(O)CCSC(=S)Nc1ccc([N+](=O)[O-])cc1`, for which the outcome was inactive. As for `N#CCCC(C#N)(C#N)CCC#N`, the EC50 is over 759 µM and the IC50 was over 759 µM. As to `O=C1NC(N2CCOCC2)=N/C1=C\c1cccs1`, the EC50 was over 200 µM and the IC50 is over 200 µM.

In the case of `Oc1ccc(-c2c3ccccc3c(-c3ccc(O)cc3)c3ccccc23)cc1`, the EC50 is over 2.75 µM and the IC50 was over 2.75 µM. In the case of `O=C(N/C(=C\c1ccc([N+](=O)[O-])cc1)c1nc2ccccc2[nH]1)c1ccccc1`, the EC50 was over 35.5 µM and the IC50 is over 35.5 µM. `CC(=O)N1C=Cc2c(c(C)c3c([nH]c4ccccc43)c2C)C1`: the EC50 is over 200 µM and the IC50 worked out at 0.158 µM.
